Assays:
Assay type in all cases: biochemical
MMP-2 (gelatinase A) = molecular target: T1, MMP-2 (gelatinase A) (Homo sapiens, UniProt P08253); test: MMP-2 (gelatinase A) inhibitory activities, fluorogenic substrate enzyme assay; conditions: 42° C., 2 h, substrate 10 μM
T1 construct: made in house; host or cells: COS-1 cells (secreted into culture medium)
T1 sequence (P08253 110-660): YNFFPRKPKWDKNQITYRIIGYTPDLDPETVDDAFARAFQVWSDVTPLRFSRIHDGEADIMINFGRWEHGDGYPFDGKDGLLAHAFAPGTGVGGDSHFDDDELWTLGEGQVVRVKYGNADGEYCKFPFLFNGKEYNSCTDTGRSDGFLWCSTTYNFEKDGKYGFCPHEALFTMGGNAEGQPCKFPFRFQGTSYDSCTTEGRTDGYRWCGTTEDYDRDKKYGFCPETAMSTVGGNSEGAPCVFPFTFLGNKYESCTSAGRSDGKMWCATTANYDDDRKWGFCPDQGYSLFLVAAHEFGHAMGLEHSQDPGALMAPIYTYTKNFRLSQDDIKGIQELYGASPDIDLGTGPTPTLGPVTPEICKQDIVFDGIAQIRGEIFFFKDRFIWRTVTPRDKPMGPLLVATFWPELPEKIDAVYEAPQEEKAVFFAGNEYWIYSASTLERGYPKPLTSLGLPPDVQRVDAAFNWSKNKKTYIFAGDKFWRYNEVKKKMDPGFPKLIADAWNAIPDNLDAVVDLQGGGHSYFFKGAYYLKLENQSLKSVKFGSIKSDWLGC
Method: (§1) Examination 2: MMP-2 (gelatinase A) and MMP-9 (gelatinase B) inhibitory activities.
(§2) Pro MMP-2 was obtained from culture medium separated from human pro-MMP-2 cDNA tranfected COS-1 cells. Pro MMP-2 activated by 1 mM (4-aminophenyl) mercury acetic acid and MMP-9, derived human fibrosarcome (Yagai Co. Ltd.), were used as enzyme respectively. Inhibition of both enzyme activities were estimated by enzyme assay using MOCAc-Pro-Leu-Gly-Leu-A2pr(Dnp)-Ala-Arg-NH2 (Peptide Research Center, 3163-v) as substrate. Thus, MMP-2 or MMP-9 (0.01 U/ml), test compound (several concentrations), and the substrate (10 μM) were incubated in 50 mM Tris - HCl buffer (pH 7.4) containing 0.2M NaCl, 10 mM CaCl2, 0.02% NaN3, and 0.05% Brij 35 at 42° C. for 2 h (MMP-2), 3 h (MMP-9) respectively. Inhibition of degradation of substrate in the presence of compound was determined by comparison with the degradation of substrate in the absence of compound, and concentration of 50% inhibition (IC50 value) was calculated.

MMP-9 (gelatinase B) = molecular target: T2, MMP-9 (gelatinase B) (Homo sapiens, UniProt P14780); test: MMP-9 (gelatinase B) inhibitory activities, fluorogenic substrate enzyme assay; conditions: 42° C., 3 h, substrate 10 μM
T2 construct: MMP-9, derived human fibrosarcome (Yagai Co. Ltd.), were used as enzyme respectively; purchased Yagai Co. Ltd; host or cells: human fibrosarcoma
T2 sequence (P14780 94-707): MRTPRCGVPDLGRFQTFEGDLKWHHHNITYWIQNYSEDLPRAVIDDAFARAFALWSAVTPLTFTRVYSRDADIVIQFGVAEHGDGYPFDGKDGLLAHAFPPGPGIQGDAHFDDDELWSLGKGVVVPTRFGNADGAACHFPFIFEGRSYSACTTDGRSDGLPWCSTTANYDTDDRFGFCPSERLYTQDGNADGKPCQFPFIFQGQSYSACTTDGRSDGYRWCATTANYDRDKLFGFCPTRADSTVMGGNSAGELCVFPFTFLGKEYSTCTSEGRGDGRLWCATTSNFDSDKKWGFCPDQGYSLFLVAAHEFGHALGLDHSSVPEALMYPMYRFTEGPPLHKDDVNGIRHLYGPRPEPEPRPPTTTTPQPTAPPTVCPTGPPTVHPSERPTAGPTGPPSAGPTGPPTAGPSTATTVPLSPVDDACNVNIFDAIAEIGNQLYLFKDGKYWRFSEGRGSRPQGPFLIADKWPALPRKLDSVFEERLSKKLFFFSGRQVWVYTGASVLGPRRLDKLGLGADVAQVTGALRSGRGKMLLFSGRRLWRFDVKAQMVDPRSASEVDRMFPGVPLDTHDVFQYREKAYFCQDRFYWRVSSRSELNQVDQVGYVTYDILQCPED
Method: as §1, §2

Δ MT1-MMP (Δ MMP-14) = molecular target: T3, Δ MT1-MMP (Δ MMP-14) (Homo sapiens, UniProt P50281); test: Δ MT1-MMP (Δ MMP-14) inhibitory activities, fluorogenic substrate enzyme assay; conditions: 37° C., 30 min, substrate 10 μM; read-out: ΔMMP-14 IC50
T3 construct: ProMT1-MMP cDNA encoded extracellular domain of pro Δ MT1-MMP was tranfected E. coli BL21DE3; made in house; host or cells: E. coli BL21DE3 (inclusion bodies, 8M urea, ion exchange)
Source text: Examination 3: Δ MT1-MMP (Δ MMP-14) inhibitory activities.
ProMT1-MMP cDNA encoded extracellular domain of pro Δ MT1-MMP was tranfected E. coli BL21DE3, pro Δ MT1-MMP collected as inclusion body was solved using 8M urea, and it was pulified by ion exchenge column chlomatography. Inhibition of enzyme activities were estimated by enzyme assay using activated Δ MT1-MMP, obtained from activation of pro Δ MT1-MMP by 10 μ/ml tripsine, and MOCAc-Pro-Leu-Gly-Leu-A2pr(Dnp)-Ala-Arg-NH2 (Peptide Research Center, 3163-v) as substrate. Thus, Δ MT1-MMP, test compound (several concentrations), and the substrate (10 μM) were incubated in 50 mM Tris - HCl buffer (pH 7.4) containing 0.2M NaCl, 10 mM CaCl2, 0.02% NaN3, 0.05% Brij 35, and 10 μM leuipeputine at 37° C. for 30 min. The reaction was stopped by adding of 4 volumes of sodium acetate buffer (pH 4.0), and the degradation of substrate was calculated by measurement with a fluorescence intensity (λ ex 328 nm, λ em 393 nm). Inhibition of degradation of substrate in the presence of compound was determined by comparison with the degradation of substrate in the absence of compound, and concentration of 50% inhibition (IC50 value) was calculated.

[1] = molecular target: T4, human fibroblasts derived MMP-1 (type I collagenase) (Homo sapiens, UniProt P03956); test: MMP-1 (type I collagenase) inhibitory activities, fluorogenic substrate enzyme assay; conditions: for IC50: 37° C., 4 h, substrate 10 μM; for inhibition at 10 µM: at 10^−5M, NE means no effect, read-out: MMP-1 inhibition percent
T4 construct: human fibroblasts derived MMP-1 (Yagai Co. Ltd.) as enzyme; purchased Yagai Co. Ltd; host or cells: human fibroblasts
T4 sequence (P03956 100-469): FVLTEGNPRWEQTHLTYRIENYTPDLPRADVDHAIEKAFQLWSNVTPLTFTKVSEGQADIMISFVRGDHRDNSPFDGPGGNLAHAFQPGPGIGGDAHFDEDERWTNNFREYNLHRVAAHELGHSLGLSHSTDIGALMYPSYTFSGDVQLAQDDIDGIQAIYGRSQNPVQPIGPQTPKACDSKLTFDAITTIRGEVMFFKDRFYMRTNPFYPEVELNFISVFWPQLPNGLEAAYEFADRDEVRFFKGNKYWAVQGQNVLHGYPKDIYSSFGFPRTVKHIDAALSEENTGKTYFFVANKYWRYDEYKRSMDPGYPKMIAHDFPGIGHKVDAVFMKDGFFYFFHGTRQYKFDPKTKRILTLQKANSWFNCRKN
Method: Examination 1: MMP-1 (type I collagenase) inhibitory activities.
Inhibitory activities of MMP-1 (type I collagenase) activities were estimated by enzyme assay using human fibroblasts derived MMP-1 (Yagai Co. Ltd.) as enzyme, and MOCAc-Pro-Leu-Gly-Leu-A2pr(Dnp)-Ala-Arg-NH2 (Peptide Research Center, 3163-v) as substrate. Thus, MMP-1 (0.01 U/ml), test compound (10^−10˜10^−5 M), and the substrate (10 μM) were incubated in 50 mM Tris-HCl buffer (pH 7.4) containing 0.2M NaCl, 10 mM CaCl2, 0.02% NaN3, and 0.05% Brij 35 at 37° C. for 4 h. The reaction was stopped by adding of 4 volumes of sodium acetate buffer (pH 4.0), and the degradation of substrate was calculated by measurement with a fluorescence intensity (λ ex 328 nm, λ em 393 nm). Inhibition of degradation of substrate in the presence of compound was determined by comparison with the degradation percent of substrate in the absence of compound, and concentration of 50% inhibition (IC50 value) was calculated.

| SMILES | IC50 (MMP-2 (gelatinase A)) [nM] | IC50 (MMP-9 (gelatinase B)) [nM] | IC50 (Δ MT1-MMP (Δ MMP-14)) [nM] | IC50 [1] [nM] | inhibition at 10 µM [1] [%] |
| --- | --- | --- | --- | --- | --- |
| CC(C)CCCN[C@@H]1CCN(S(=O)(=O)c2cccs2)[C@@H](C(=O)NO)C1 [Compound 70, (2R, 4R)-2-Hydroxyaminocarbonyl-4-(4-methylpentylamino)-1-(2-thiophenesulfonyl)-piperidine] | 740 | 83 | 380 | 5600 | – |
| COc1ccc(OCCCCC(=O)N[C@@H]2CCN(S(=O)(=O)c3ccc(OC)cc3)[C@@H](C(=O)NO)C2)cc1 [Compound 46, (2R, 4R)-2-Hydroxyaminocarbonyl-1-(4-methoxybenzenesulfonyl)-4-[5-(4-methoxyphenoxy)pentanoylamino]-piperidine] | 1.5 | 0.88 | 4.3 | 7600 | – |
| COc1ccc(-c2ccccc2S(=O)(=O)N2CC[C@@H](NC(=O)CCC(C)C)C[C@@H]2C(=O)NO)cc1 [Compound 54, (2R, 4R)-2-Hydroxyaminocarbonyl-1-[2-(4-methoxyphenyl)benzenesulfonyl]-4-(4-methylpentanoylamino)-piperidine] | 380 | 1800 | 200 | – | 45.8 |
| COc1ccc(-c2ccc(S(=O)(=O)N3CC[C@@H](NCc4ccccc4)C[C@@H]3C(=O)NO)cc2)cc1 [Compound 56, (2R, 4R)-4-Benzylamino-2-hydroxyaminocarbonyl-1-[4-(4-methoxyphenyl)benzenesulfonyl]-piperidine] | 0.49 | 0.36 | 16 | 1300 | – |
| CC(C)CCC(=O)N[C@@H]1CCN(S(=O)(=O)c2ccc(-c3ccc(O)cc3)cc2)[C@@H](C(=O)NO)C1 [Compound 57, (2R, 4R)-2-Hydroxyaminocarbonyl-1-[4-(4-hydroxyphenyl)benzenesulfonyl]-4-(4-methylpentanoylamino) piperidine] | 1.8 | 11 | 100 | 460 | – |
| COc1ccc(-c2ccc(S(=O)(=O)N3CC[C@@H](NC(=O)c4ccc([N+](=O)[O-])cc4)C[C@@H]3C(=O)NO)cc2)cc1 [Compound 75, (2R, 4R)-2-Hydroxyaminocarbonyl-1-[4-(4-methoxyphenyl)benzenesulfonyl]-4-(4-nitrobenzoylamino)-piperidine] | 15 | 16 | 890 | 2500 | – |
| COc1ccc(S(=O)(=O)N2CC[C@@H](NC(=O)CCC(C)C)C[C@@H]2C(=O)NO)cc1 [Compound 45, (2R, 4R)-2-Hydroxyaminocarbonyl-1-(4-methoxybenzenesulfonyl)-4-(4-methylpentanoylamino)-piperidine] | 1.7 | 1.4 | 16 | – | 45.3 |
| COc1ccc(OCCCCC(=O)N[C@H]2CCN(S(=O)(=O)c3ccc(OC)cc3)[C@H](C(=O)NO)C2)cc1 [Compound 78, (2S, 4S)-2-Hydroxyaminocarbonyl-1-(4-methoxybenzenesulfonyl)-4-[5-(4-methoxyphenoxy)pentanoylamino]-piperidine] | 500 | 450 | 300 | – | 31.1 |
| CC(=O)N[C@@H]1CCN(S(=O)(=O)c2ccc(-c3ccc(Cl)cc3)cc2)[C@@H](C(=O)NO)C1 [Compound 72, (2R, 4R)-4-Acetylamino-1-[4-(4-chlorohenyl)benzenesulfonyl]-2-hydroxyaminocarbonyl-piperidine] | 3 | 1.1 | 23 | 37 | – |
| COc1ccc(-c2ccc(S(=O)(=O)N3CC[C@H](NC(C)=O)C[C@@H]3C(=O)NO)cc2)cc1 [Compound 82, (2R, 4S)-4-Acetylamino-2-hydroxyaminocarbonyl-1-[4-(4-methoxyphenyl)benzenesulfonyl]-piperidine] | 740 | 440 | 1300 | – | 0 |
| O=C(N[C@@H]1CCN(S(=O)(=O)c2ccc(-c3ccc(Cl)cc3)cc2)[C@@H](C(=O)O)C1)c1cccc[n+]1[O-] [Compound 89, (2R, 4R)-2-Carboxy-1-[4-(4-chlorophenyl)benzenesulfonyl]-4-(pyridyl-N-oxide-2-yl) carbonylamino-piperidine] | 28 | 200 | 7000 | – | 14 |
| CC(C)CCC(=O)N[C@@H]1CCN(S(=O)(=O)c2ccc(-c3ccc([N+](=O)[O-])cc3)cc2)[C@@H](C(=O)NO)C1 [Compound 67, (2R, 4R)-2-Hydroxyaminocarbonyl-4-(4-methylpentanoylamino)-1-[4-(4-nitrophenyl)benzenesulfonyl]-piperidine] | 22 | 36 | 1500 | 1200 | – |
| CC(C)CCC(=O)N[C@@H]1CCN(S(=O)(=O)c2cccc(-c3ccc(O)cc3)c2)[C@@H](C(=O)NO)C1 [Compound 53, (2R, 4R)-2-Hydroxyaminocarbonyl-1-[3-(4-hydroxyphenyl)benzenesulfonyl]-4-(4-methylpentanoylamino)-piperidine] | 960 | 6900 | 2000 | – | 53 |
| O=C(N[C@@H]1CCN(S(=O)(=O)c2ccc(-c3ccc(Cl)cc3)cc2)[C@@H](C(=O)NO)C1)c1ccccn1 [Compound 74, (2R, 4R)-1-[4-(4-Chlorophenyl)benzenesulfonyl]-2-hydroxyaminocarbonyl-4-(2-pyridinecarbonylamino)-piperidine] | 5.2 | 13 | 74 | – | 48.9 |
